In series [1] the test system is human brain tumor cell line (U-87 MG). The series can be described thus: Evaluation 1 of antitumor effect and toxicity in mouse (U-87 MG subcutaneous transplant). The class given is in vivo, BALB/cA Jcl-nu/nu mice. The conditions noted are these: oral every day; Comparative Example 2 12 mg/kg/day, Example 1 15.4 mg/kg/day. As for the experimental part:
The day of grouping mice was determined Day 0.
IRs of Comparative Example 2-compound administration group and Example 1-compound administration group on the final day of evaluation (Day 6 in Comparative Example 2 and Day 13 in Example 1) are shown in FIG. 1 and BWC versus elapsed days is shown in FIG. 2.

Series [2] in a line: Presence of prodrug in mouse and absorbency (plasma AUC after oral administration). The class given is in vivo. Conditions: male, Balb/cA, mouse, 7.6 umol/kg, mice, 7.6 μmol/kg, administered compound itself in plasma, read-out: AUC0-6hr. As to the method: The dosage amounts of the compounds of Comparative Examples 1 to 5 and Examples 1 to 26 are those (mole/10 mL/kg) shown in Tables. Solutions for administration were prepared with an 0.5% aqueous solutions of HPMC so as to satisfy the dosage amounts.
Note that, the “amount of mole/10 mL/kg” means as follows: for example “10 mmol/10 mL/kg” means that 10 mmol of a test compound per body-weight (1 kg) of a mouse was dispersed or dissolved in a solution (10 mL) for administration. The same applies hereinafter.
The solutions for administration prepared above were orally administered to mice (Balb/cA, male) not fasted each by use of an oral administration sonde.
The mice were anesthetized with isoflurane 0.5, 1, 2, 4 and 6 hours after administration and blood was taken from the facial vein by use of a specific needle (animal lancet) and a heparin-coated hematocrit tube.
The blood sampled was immediately centrifuged (13000 rpm, 2 minutes, 4° C.) to prepare the plasma samples. After proteins were removed from the plasma samples, the concentrations of the test compound in the plasma samples were measured by LC/MS/MS.
The value of “area under the curve” (AUC) of drug concentration in blood versus time was calculated using analysis software such as Phoenix (registered trademark) WinNonlin (registered trademark).
In Table 3, “Comparative Example 1” and “Comparative Example 2” represent the “compound (Br form) of Comparative Example 1” and the “compound (I form) of Comparative Example 2”, respectively. In Table 4, “Comparative Example 6” represents the “compound (C1 form) of Comparative Example 6”.

In series [3] the test system is human brain tumor cell line (U-87 MG). The series can be described thus: Combinational effect of compound and temozolomide (TMZ), cell viability (crystal violet). Conditions: any order (same-day, compound first, TMZ first), Student's t-test. It is filed as cell-based. As to the method: A human brain tumor cell line (U-87 MG) was suspended in a medium, seeded in individual wells of a multi-well plate and cultured. In the case where two compounds are simultaneously added, both compounds were added on two days after initiation of culture. In the case where addition of the compound of the present invention preceded, a serially diluted solution of the compound was added on the day after initiation of culture and a serially diluted solution of TMZ was added two days after initiation of culture. In the case where addition of TMZ preceded, a serially diluted solution of TMZ was added on the day after initiation of culture and a serially diluted solution of the compound was added on two days after initiation of culture. Day 5 after seeding, cells were fixed with a 25% aqueous solution of glutaraldehyde and stained with a staining fluid (0.05 w/v % crystal violet in 20% methanol). After an extract (0.1 N NaH2PO4: 100% ethanol=1:1) was added and stirred, an absorbance at 540 nm was measured to obtain a cell count. The cell viability was calculated in accordance with the following equation and statistically processed in accordance with a Student's t-test.
T: Absorbance of a well containing TMZ or a compound
C: Absorbance of a well containing neither TMZ nor a compound

The test system of series [4] is A172. The series is described as follows: Growth suppression activity in human tumor cell line. The class given is cell-based. Conditions: A 172, 72 h; Human brain tumor, A172, 3 days. As for the experimental part: (§1) Human tumor cell lines different in type were suspended in mediums, seeded in individual wells of a multi-well plate and cultured. On the day after initiation of culture, serially diluted solutions of a compound were added. Culture was carried out for further 3 days. Cells were counted by a CellTiter-Glo (manufactured by Promega KK) in accordance with the protocol recommended by Promega KK. Cell viability was calculated in accordance with the equation shown below and the concentration (IC50 (μM)) of the compound at which 50% of cell growth is inhibited was obtained.
(§2) T: Intensity of light emitted from a well containing a compound
(§3) C: Intensity of light emitted from a well containing no compound

Series [5] concerns DLD1. The description is as above. The class given is cell-based. The conditions noted are these: DLD-1, 72 h; Human colorectal cancer, DLD1, 3 days. As to the method: as §1, §2, §3
The subject of series [6] is CFPAC1. The description is as above. It is filed as cell-based. Conditions: CFPAC-1, 72 h; Human pancreatic cancer, CFPAC1, 3 days. As to the method:
as §1, §2, §3

The test system of series [7] is H69. Described as above. The conditions noted are these: NCI-H69, 72 h; Human lung cancer, H69, 3 days. The class given is cell-based. As for the experimental part:
as §1, §2, §3

The subject of series [8] is CCRFCEM. The description is as above. The class given is cell-based. Conditions: CCRF-CEM, 72 h, Human hematopoietic organ tumor, 3 days. As to the method:
as §1, §2, §3

The subject of series [9] is MOLT4. The description is as above. It is filed as cell-based. Conditions: MOLT-4, 72 h; Human hematopoietic organ tumor, MOLT4, 3 days. As for the experimental part: as §1, §2, §3
The subject of series [10] is H1703. The series is described as above. It is filed as cell-based. The conditions noted are these: NCI-H1703, 72 h; Human lung cancer, H1703, 3 days. As for the experimental part: as §1, §2, §3
Series [11] relates to MIAPACA2. Described as above. The class given is cell-based. The conditions noted are these: MIA PaCa-2, 72 h; Human pancreatic cancer, MIAPACA2, 3 days. As for the experimental part:
as §1, §2, §3

Series [12] has as its system MKN45. The series is described as above. Conditions: MKN-45, 72 h; Human stomach cancer, MKN45, 3 days. The class given is cell-based. As for the experimental part:
as §1, §2, §3

Series [13] relates to HT29. The series is described as above. The conditions noted are these: HT-29, 72 h; Human colorectal cancer, HT29, 3 days. The class given is cell-based. As to the method: as §1, §2, §3
The test system of series [14] is MV-4-11. The description is as above. The class given is cell-based. The conditions noted are these: MV4-11, 72 h; Human hematopoietic organ tumor, MV-4-11, 3 days. As for the experimental part: as §1, §2, §3
Series [15] deals with HCT116. Described as above. It is filed as cell-based. The conditions noted are these: HCT-116, 72 h; Human colorectal cancer, HCT116, 3 days. As for the experimental part: as §1, §2, §3
In series [16] the test system is LN229. The series is described as above. It is filed as cell-based. The conditions noted are these: LN-229, 72 h; Human brain tumor, LN229, 3 days. As for the experimental part: as §1, §2, §3
Series [17] deals with A427. The series can be described thus: Growth suppression activity to human tumor cell line (Evaluation 3). It is filed as cell-based. The conditions noted are these: A-427, 72 h; Human lung cancer, A427, 3 days. As to the method:
(§4) Human tumor cell lines different in type were suspended in mediums, seeded in individual wells of a multi-well plate and cultured. On the day after initiation of culture, serially diluted solutions of a compound were added. Culture was carried out for further 3 days. Cells were counted by a CellTiter-Glo (manufactured by Promega KK) in accordance with the protocol recommended by Promega KK. Cell viability was calculated in accordance with the equation shown below and the concentration (IC50 (nM)) of a compound at which 50% of cell growth is inhibited was obtained.
as §2, §3

Series [18] relates to H520. The description is as above. It is filed as cell-based. The conditions noted are these: NCI-H520, 72 h; Human lung cancer, H520, 3 days. As to the method:
as §4, §2, §3

Series [19] relates to human brain tumor cell line (U-87 MG). The series can be described thus: Combination use of compound and radiation, cell viability (crystal violet). Conditions: any order (same-day, compound first, radiation first), Student's t-test. It is filed as cell-based. As to the method: A human brain tumor cell line (U-87 MG) was suspended in a medium, seeded in individual wells of a multi-well plate and cultured. In the case where radiation exposure and addition of a compound are simultaneously carried out, both treatments were carried out on two days after initiation of culture. In the case where addition of a compound preceded radiation exposure, a serially diluted solution of a compound was added on the day after initiation of culture and radiation exposure was carried out on two days after initiation of culture. In the case where radiation exposure preceded addition of a compound, radiation exposure was carried out on the day after initiation of culture and a serially diluted solution of a compound was added on the two days after initiation of culture. Day 5 after seeding, cells were fixed with a 25% aqueous solution of glutaraldehyde and stained with a staining fluid (0.05 w/v % crystal violet in 20% methanol). After an extract (0.1 N NaH2PO4: 100% ethanol=1:1) was added and stirred, an absorbance at 540 nm was measured to obtain a cell count. The cell viability was calculated in accordance with the following equation and statistically processed in accordance with a Student's t-test.
T: Absorbance of a well exposed to radiation or containing a compound
C: Absorbance of a well neither exposed to radiation nor containing a compound

SMILES strings stand for the structures.

The IC50 is the concentration needed to halve the response being measured.

Turning to `Nc1ncnc2c1c(I)cn2[C@@H]1O[C@H](CO)[C@@H](O)[C@@H]1F` [Comparative Example 2, (2R,3R,4S,5R)-5-(4-amino-5-iodo-7H-pyrrolo[2,3-d]pyrimidin-7-yl)-4-fluoro-2-(hydroxymethyl) tetrahydrofuran-3-ol], the “final day of evaluation (administration continued as long as weight loss was acceptable, until 20% or more)” value in [1] was 6 days. For the same molecule, the AUC(0-t) in series [2] was determined as 0.21 µM·h. Moreover, in series [3], the “cell viability, combination treatment with TMZ compared to the single treatments” value is “significant decrease in cell viability”. The IC50 in series [4] worked out at 30 nM; in [5] it was 40 nM; in series [6], 50 nM; in series [7], 60 nM; in series [8] it was 40 nM; in series [9], 10 nM. Moreover, the 50% inhibitory concentration (IC50) in series [10] came out at 40 nM; in [11] it was 40 nM; in series [12], 130 nM; in [13] it was 130 nM; in series [14] it was 4 nM; in [15], 90 nM. Also, the figures for the IC50 in series [16], in series [17] and in series [18] were 20 nM, 98 nM and 29 nM, respectively. Moreover, in series [19], the “cell viability, combination treatment with radiation exposure compared to the single treatments” value is “cell viability significantly decreased”.

The values above are taken from patent publication US20220233566A1, “NOVEL CARBONATE COMPOUND HAVING PYRROLOPYRIMIDINE SKELETON OR PHARMACEUTICALLY ACCEPTABLE SALT THEREOF” (TAIHO PHARMACEUTICAL CO., LTD., priority 2019, published 2022).
